In PubChem BioAssay (NCI):
Several values for one entry are separate records, joined by “and”; a condition that tells them apart may be missing. Identical values can stand only once.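 Growth conditions: 96-well plates. Treatment: test compound, 48 hours, 5 concentrations. Analysis: linear interpolation between bracketing concentrations; unreached endpoints set to highest concentration. GI50 marks 50% less growth. The concentration for full growth arrest is given as TGI.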

Assays:
Assay in all cases: NCI-60 cell line screen, 48 h
MOLT-4 leukemia = system: MOLT-4 leukemia
DU-145 prostate = system: DU-145 prostate
UACC-257 melanoma = system: UACC-257 melanoma
SR leukemia = system: SR leukemia
SNB-19 CNS = system: SNB-19 CNS
BT-549 breast = system: BT-549 breast
MDA-MB-435 = system: MDA-MB-435
OVCAR-4 ovarian = system: OVCAR-4 ovarian
LXFL 529 NSCLC = system: LXFL 529 NSCLC
M19-MEL melanoma = system: M19-MEL melanoma
KM20L2 colon = system: KM20L2 colon

Compound	TGI (MOLT-4 leukemia)	TGI (DU-145 prostate)	TGI (UACC-257 melanoma)	TGI (SR leukemia)	TGI (SNB-19 CNS)	TGI (BT-549 breast)	TGI (MDA-MB-435)	TGI (OVCAR-4 ovarian)	TGI (LXFL 529 NSCLC) [µM]	TGI (M19-MEL melanoma) [µM]	TGI (KM20L2 colon) [µM]	GI50 (MOLT-4 leukemia)	GI50 (DU-145 prostate)	GI50 (UACC-257 melanoma)	GI50 (SR leukemia)	GI50 (SNB-19 CNS)	GI50 (BT-549 breast)	GI50 (MDA-MB-435)	GI50 (OVCAR-4 ovarian)
O=c1cc(O)c2c(O)cc(O)cc2o1	> 100 µM	> 100 µM	> 100 µM	> 100 µM	> 100 µM	> 100 µM	> 100 µM	> 100 µM	–	–	–	–	–	–	–	–	–	–	–
O=C1CCC2(c3ccccc3)Nc3ccc(Cl)cc3N12 (centres undefined)	> 100 µM	–	> 100 µM	–	–	–	–	> 100 µM	> 100	> 100	> 100	–	–	–	–	–	–	–	–
Cn1c(C(C)(C)OC(=O)Oc2ccccc2)cnc1[N+](=O)[O-]	45.8 µM	> 100 µM	> 100 µM	51.7 µM	> 100 µM	> 100 µM	> 100 µM	> 100 µM	–	–	–	–	–	–	–	–	–	–	–
NC(CO)C(=O)NCC(=O)O (centres undefined)	> 100 µM	> 100 µM	> 100 µM	> 100 µM	> 100 µM	> 100 µM	> 100 µM	> 100 µM	–	–	–	–	–	–	–	–	–	–	–
CCN1C(=O)N(CC)C2C1NN=c1s/c(=C\c3cccc([N+](=O)[O-])c3)c(=O)n12 (centres undefined)	> 100 µM	> 100 µM	> 100 µM	> 100 µM	> 100 µM	33.5 µM	0.0504 µM	> 100 µM	–	–	–	0.24 µM	0.101 µM	> 100 µM	0.0471 µM	0.128 µM	0.291 µM	0.0214 µM	0.567 µM
COc1cc(C2C3=C(COC3=O)Nc3cc4c(cc32)OCO4)cc2c1OCO2 (centres undefined)	> 100 µM	0.459 µM	> 100 µM	> 100 µM	> 100 µM	> 100 µM	0.0664 µM	> 100 µM	–	–	–	0.123 µM	0.0832 µM	–	0.0479 µM	0.143 µM	1.66 µM	0.0238 µM	0.0982 µM
O=C(c1ccccc1O)c1[nH]c(Cl)c(Cl)c1-n1c(C(=O)c2ccccc2O)cc(Cl)c1Cl	14.4 µM and 5.74 µM	16.3 µM and 16.6 µM	5.88 µM and 9.95 µM	15.2 µM and 15.1 µM	15.4 µM and 15.6 µM	6.74 µM and 4.96 µM	10.6 µM and 10.4 µM	19.4 µM and 10.7 µM	–	–	–	1.7 µM and 0.798 µM	2.25 µM and 1.81 µM	1.58 µM and 1.99 µM	2.76 µM and 0.446 µM	1.49 µM and 0.917 µM	1.22 µM and 0.675 µM	1.87 µM and 1.51 µM	2.41 µM and 1.86 µM
Cc1ccc(C)c2c(N=Nc3ccccc3[N+](=O)[O-])c(O)[nH]c12	> 100 µM	> 100 µM	> 100 µM	> 100 µM	> 100 µM	> 100 µM	> 100 µM	> 100 µM	–	–	–	–	–	–	–	–	–	–	–
COc1cc2c(cc1O)C(c1cc(O)c(O)c(OC)c1)C(O)(C(=O)O)C(CO)C2O (centres undefined)	44.3 µM	> 100 µM	> 100 µM	> 100 µM	> 100 µM	> 100 µM	37 µM	> 100 µM	–	–	–	–	–	–	–	–	–	–	–
CCCCCSC1C2C(=O)C(Br)=CC13CCNc1c(O)c4c5c(c13)=[N+]2CCC=5C=N4 (centres undefined)	5.73 µM	3.72 µM	1.2 µM	14.7 µM	4.97 µM	4.96 µM	0.571 µM	0.609 µM	–	–	–	0.762 µM	1.74 µM	0.385 µM	1.35 µM	2.69 µM	2.61 µM	0.304 µM	0.256 µM
